Laboratory results: patent US20230079757A1, “METHODS AND MATERIALS FOR TREATING CANCER” (Mayo Foundation for Medical Education and Research, priority 2020, published 2023)
l = locked nucleic acid (LNA); d = 2'-deoxy (DNA)

How the values were obtained:
Foxa1 protein = test: Western blot analysis of Foxa1 protein in MyC-CaP cells after ASO transfection; format: cell-based; conditions: MyC-CaP murine prostate cancer cells, 48 hours after transfection, vs control ASO
Description: (§1) FIGS. 19A-19B. FOXA1 ASOs sensitize prostate cancer to anti-PD-L1 immunotherapy in mice. (FIG. 19A) Western blot analysis of Foxal protein in MyC-CaP mouse prostate cancer cells at 48 hours after transfection with control ASO (Con ASO), Foxal gene specific ASO1, or Foxa1 gene specific ASO2. Erk2 was used as a loading control. (FIG. 19B) Growth of subcutaneous MyC-CaP prostate tumors in wild type intact FVB male mice. Mice were treated with anti-PD-L1 or non-specific IgG (10 mg/kg) in combination with control ASO (Con ASO) (12.5 mg/kg), Foxal ASO1 (12.5 mg/kg), or Foxa1 ASO2 (12.5 mg/kg) for the indicated number of days. Data shown as means ±s.d. (n=6). Statistical significance was determined by two-way ANOVA (* P<0.05; ** P <0.01; *** P <0.0001).
MyC-CaP murine prostate cancer cells were transfected with control ASO (Con ASO) or two Foxal-specific ASOs (Foxal ASO1 and Foxal ASO2).
The MyC-CaP murine prostate cancer cell line, originally derived from prostate tumors of Hi-Myc transgenic mice in FVB genetic background, was purchased from ATCC (Manassas, Va.).
Antibodies used include anti-FOXA1 antibody (# ab23738, Abcam), anti-ERK2 (# sc-1647, Santa Cruz Biotechnology), anti-mouse PD-L1 mAb (clone 10B5), and InVivoMAb mouse IgG1 isotype control (clone MOPC-21) (# BE0083, Bio X Cell).

MyC-CaP prostate tumors = test: Growth of subcutaneous MyC-CaP prostate tumors in FVB male mice; format: in vivo; conditions: ASO 12.5 mg/kg intraperitoneal, n=6
Description: as §1
MyC-CaP cells (3×10^6) were injected subcutaneously into the right flank of 6-week-old wild-type intact FVB male mice. When the average tumor volume reached approximately 100 mm^3, mice were randomized into groups subsequently treated with intraperitoneal injection of anti-PD-L1 or non-specific control IgG (10 mg/kg) in combination with control antisense oligonucleotides (12.5 mg/kg), Foxal ASO1 (12.5 mg/kg), or Foxal-ASO2 (12.5 mg/kg).
Thirty six 6-week-old wild-type intact FVB mice were purchased from Jackson Laboratories (Bar Harbor, Me.). Tumor volume was measured by digital caliper and calculated using a formula of length×width×width×0.5.

TRAMP-C2 tumors [1] = test: CyTOF analysis of immune cells in TRAMP-C2 tumors after Poly(I:C); format: in vivo, mice
Excerpt: (§2) FIGS. 13A-13H. FOXA1 overexpression confers cancer immuno- and chemo-therapy resistance in mice and patients. FIG. 13A) Schematic diagram of generation and Poly(I:C) treatment of TRAMP-C2 prostate tumors in syngeneic mice. FIG. 13B) Growth of TRAMP-C2-Vector and TRAMP-C2-FOXA1ΔαH3 tumors treated with or without Poly(I:C). FIG. 13C) Tumor-free survival of syngeneic mice bearing TRAMP-C2-Vector or TRAMP-C2-FOXA1ΔαH3 tumors administrated with or without Poly(I:C). Statistical significance was determined by Log-rank (Mantel-Cox) test. FIGS. 13D and 13E) PhenoGraph-defined cellular distribution and clustering, as defined by tSNE1 and tSNE2, colored by cellular phenotypes in TRAMP-C2-Vector and TRAMP-C2-FOXA1ΔαH3 tumors from mice at 16 days post vehicle or Poly(I:C) treatment (FIG. 13D). Data were derived from all normalized viable single cells, subjected to the PhenoGraph algorithm. Data in the bar graphs (FIG. 13E) are means ±s.d, n=3. […] Statistical significance was determined by unpaired two-tailed Student's t tests in FIGS. 13E, 13F and 13G. FIG. 13H) Progression-free survival of patients with FOXA1-expression low or high urothelial carcinoma treated with anti-PD1 immunotherapy. Statistical significance was determined by Log-rank (Mantel-Cox) test.
(§3) TRAMP-C2-Vector or TRAMP-C2-FOXA1ΔαH3 cells (3×10^6) were injected subcutaneously into the right flank of 8-week old male C57BL/6 on day 0. Tumors were measured twice per week with calipers and the volume calculated (length×width×width×0.5). Poly I:C (2.5 mg/kg, 100 pl) purchased from Sigma-Aldrich (# P1530) or vehicle (PBS, 100 pl) was administered by intratumoral injection twice per week (five doses in total) and tumors were measured twice per week until the tumor volume reached the maximum allowed size ([…]). For CyTOF and Immunofluorescence experiments, mice were euthanized at 48 hours post the last administration.
Single tumor cells were isolated using the Mouse Tumor Dissociation Kit (Miltenyi Biotec, # 130-096-730) following standard protocol. CyTOF staining panels are detailed in Table 3. […]

TRAMP-C2 tumors [2] = test: Growth and survival of TRAMP-C2 prostate tumors in syngeneic C57BL/6 mice treated intratumorally with Poly(I:C); format: in vivo
Excerpt: as §2
To directly explore the role of FOXA1 in inhibiting cancer immune response, stable murine prostate cancer TRAMP-C2 cell lines overexpressing FOXA1-WT, cancer-associated mutant FOXA1-R261G and DNA binding-deficient mutant FOXA1ΔαH3, were established. […]
as §3, with “For CyTOF and Immunofluorescence experiments, mice were euthanized at 48 hours post the last administration.” left out

[3] = molecular target: T1, GST-tagged STAT2 DNA binding domain (a.a. 312-486) (UniProt P52630 312-486); test: mutagenesis and GST pull down (FIG. 9E)
T1 construct: range 312-486; also called STAT2-DBD; STAT2 DBD; not shown: GST tag
T1 sequence (looked up): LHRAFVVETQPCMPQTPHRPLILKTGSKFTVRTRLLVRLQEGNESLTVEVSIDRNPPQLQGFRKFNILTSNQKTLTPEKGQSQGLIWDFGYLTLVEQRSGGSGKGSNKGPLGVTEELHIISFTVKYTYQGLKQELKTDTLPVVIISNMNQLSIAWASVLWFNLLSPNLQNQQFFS
Description: For extraction of nuclear and cytoplasmic proteins from cells, NE-PER Nuclear and Cytoplasmic Extraction Kit (# 78835, Thermo Fisher Scientific) was used according to the manufacturer's instructions. IP buffer (50 mM Tris-HCl pH7.5, 150 mM NaCl, 1% NP40, 0.5% Sodium Deoxycholate) was used to extract whole cell lysate. P rotein A/G agarose (# 20421, Thermo Fisher Scientific) was used for immunoprecipitation of FOXA1 (# ab23738, Abcam) and Flag-tag (dilution 1:1000; # F1804, Sigma-Aldrich). Monoclonal anti-HA agarose (# A2095, Sigma-Aldrich) was used for HA-tag Co-IP. For glutathione-S-transferase (GST) pulldown assay, GST-tagged STAT2 fragment expressed at E. coli was purified by Glutathione Sepharose 4B beads (# 84-239, Genesee Scientific) and incubated with lysate from 293T cells expressing interested proteins, and GST pulldown assays were performed. For protein co-IP, samples eluted in IP butter were incubated with agarose beads and antibodies overnight at 4° C. and washed with 6 times with IP buffer in the following day. Samples were boiled for 10 minutes in 50 μl sample buffer (2% SDS, 10% glycerol, 10% β-mercaptoethanol, bromophenol blue and Tris-HCl, pH 6.8) and subjected to Western blotting.

With “Foxa1 ASO1: LNA/PS antisense oligo +G*+G*+T*A*G*C*G*C*C*A*T*A*A*G*G*A*G*+A*+G*+T (SEQ ID NO: 42) (antisense GGTAGCGCCATAAGGAGAGT; sugars from the 5' end l3 d14 l3, all phosphorothioate, methylation of C not given here)” as the molecule, how does the Foxa1 protein knockdown (Foxa1 protein) read?
Its Foxa1 protein knockdown is “substantially knocked down”.

What about the tumor growth (MyC-CaP prostate tumors) of the same molecule?
Its tumor growth is “significantly inhibited tumor growth”.

Which results are given for “Foxa1 ASO2: LNA/PS antisense oligo +T*+G*+G*A*T*G*G*C*C*A*T*C*G*+T*+G*+A (SEQ ID NO: 43) (antisense TGGATGGCCATCGTGA; sugars from the 5' end l3 d10 l3, all phosphorothioate, methylation of C not given here)”?
Foxa1 protein knockdown (Foxa1 protein): substantially knocked down; tumor growth (MyC-CaP prostate tumors): significantly inhibited tumor growth

Which results are given for Poly(I:C)?
TILs, especially CD8+ T and NK cells (TRAMP-C2 tumors [1]; TRAMP-C2-FOXA1ΔαH3 tumors): such effect was diminished; CD11b+Gr1+ myeloid-derived suppressor cells (MDSCs) (TRAMP-C2 tumors [1]; TRAMP-C2-Vector tumors): reduced; TILs, especially CD8+ T and NK cells (TRAMP-C2 tumors [1]; TRAMP-C2-Vector tumors): discernibly increased; tumor growth-inhibitory effect (TRAMP-C2 tumors [2]; TRAMP-C2-FOXA1ΔαH3 tumors, Poly I:C 2.5 mg/kg intratumoral): largely diminished; overall mouse survival (TRAMP-C2 tumors [2]; TRAMP-C2-Vector tumors, Poly I:C 2.5 mg/kg intratumoral): prolonged; tumor growth (TRAMP-C2 tumors [2]; TRAMP-C2-Vector tumors, Poly I:C 2.5 mg/kg intratumoral twice per week, five doses): decreased the growth

B1: FOXA1 forkhead domain-containing region (FKCR, a.a. 141-294) (other, UniProt P55317 141-294, looked up)
chain: MAYAPSNLGRSRAGGGGDAKTFKRSYPHAKPPYSYISLITMAIQQAPSKMLTLSEIYQWIMDLFPYYRQNQQRWQNSIRHSLSFNDCFVKVARSPDKPGKGSYWTLHPDSGNMFENGCYLRRQKRFKCEKQPGAGGGGGSGSGGSGAKGGPESR
notes: Expressed in 293T cells, and the lysate was used for GST pulldown; also called FOXA1-FKCR
Does B1 bind [3]?
Result: binds
